Assay results published in US20250268900A1, “COMBINATION THERAPY USING A SUBSTITUTED PYRIMIDIN-4(3H)-ONE AND NIVOLUMAB AS WELL AS ITS USE IN THE TREATMENT OF CANCER” (BRISTOL-MYERS SQUIBB COMPANY, priority 2022, published 2025).

What was measured:
IFNγ = IFNγ concentration in PBMC supernatants 5 days post CEFT stimulation, TR-FRET; assay type: cell-based; conditions: 5 days after CEFT stimulation; data not shown
Procedure: (§1) A study was performed to evaluate the effect of the SHP2 inhibitor Compound (10b) alone and in combination with αPD-L1 on T cell cytokine production and killing potential in response to antigenic stimulation. PBMCs from four healthy donors were stimulated with a CEFT peptide pool and treated with vehicle, isotype control, αPD-L1, a titration of Compound (10b), or a titration of Compound (10b) with the addition of either isotype control or αPD-L1. After the initial CEFT stimulation, the cultures were rested and cytokines were added to expand the number of responding CD8+ T cells. Cells were then restimulated with the CEFT peptide pool for 24 hours, and the frequency of CD107a+ cells as a percentage of total CD8+ T cells was assessed by flow cytometry. In addition, at 5 days post stimulation, the supernatents were harvested and the concentration of IFNγ was measured by TR-FRET. FIG. 1A-FIG. 1B show results from this study.

CD8+ T cells = assay: CD8+ activation in PBMCs: CD107a+ cells as a percentage of total CD8+ T cells after CEFT peptide pool stimulation, flow cytometry; assay type: cell-based; conditions: PBMCs restimulated with CEFT peptide pool 24 hours, titration of Compound (10b) alone or with αPD-L1
Procedure: as §1

CT-26 KRAS D12C KI tumor = conditions: CT-26 KRAS D12C KI bearing Balb/c mice, n = 10
Description: Animal Receipt and Housing. For the CT-26 CRISPR knock-in KRAS D12C study, protocols and procedures involving the care and use of animals were reviewed and approved by the Charles River Accelerator and Development Lab (CRADL) Institutional Animal Care and Use Committee (IACUC) prior to execution. The animal care and use program has been fully accredited by the Association for Assessment and Accreditation of Laboratory Animal Care International (AAALAC). Balb/c female mice (Envigo; Inotiv Inc.) were ordered, aged six to eight weeks at receipt, and identified by ear notch. Animals were acclimated for a period of eleven days prior to tumor inoculation. For the duration of the acclimation period and throughout the study, mice were group-housed up to five animals per cage in disposable polycarbonate IVC cages (Innovive; San Diego, CA) which consisted of a layer of Alpha-Dri bedding (Sheppard Specialty Papers, Inc., Kalamazoo, MI), a certified enrichment block and diamond-twist, and a certified polycarbonate housing device. Mice were presented with rodent diet pellet and irradiated reverse-osmosis Aquavive® drinking water (Innovive; San Diego, CA), ad libitum. The vivarium temperature was maintained between 20° C. through 26° C. and an environmental humidity between 30% through 70%. The interior room lighting was cycled twelve hours on and twelve hours off.
Tumor Cell Line Culture and Inoculation. […] Cells were screened and confirmed negative for mouse pathogens (IDEXX) and maintained in-vitro at 37° C., 5% CO2 atmosphere in 10% (v/v) fetal bovine serum (FBS, Invitrogen) and 90% (v/v) Roswell Park Memorial Institute (RPMI) 1640 Medium (Gibco) on T150 flasks. For implantation, cells were harvested with 0.25% Trypsin-EDTA (Gibco), washed in DPBS (Gibco), counted and viability determined with trypan blue exclusion using Vi-Cell XR (Beckman Coulter), then brought up in a 1:1 ratio of DPBS:Matrigel to a final concentration of 3×10^6 cells/mL. […]

Cc1c(N2CCC3(CC2)CO[C@@H](C)[C@H]3N)nc(C)n(-c2cccc(Cl)c2Cl)c1=O (atropisomer, axis not shown; (Ra)) [Compound (10b), 6-((3S,4S)-4-amino-3-methyl-2-oxa-8-azaspiro[4.5]decan-8-yl)-3-(Ra)-(2,3-dichlorophenyl)-2,5-dimethyl-4(3H)-pyrimidinone]
IFNγ levels (IFNγ): inconsistent across donors
CD107a+CD8+ T cells (frequency of CD107a+ cells as a percentage of total CD8+ T cells) (CD8+ T cells; donor 1): clear Compound (10b) dose-dependent effect
CD107a+CD8+ T cells (frequency of CD107a+ cells as a percentage of total CD8+ T cells) (CD8+ T cells; donor 2): dose dependent decrease
CD107a+CD8+ T cells (frequency of CD107a+ cells as a percentage of total CD8+ T cells) (CD8+ T cells; donor 3): some Compound (10b) effect
CD107a+CD8+ T cells (frequency of CD107a+ cells as a percentage of total CD8+ T cells) (CD8+ T cells; donor 4): no Compound (10b) effect
Median Progression-Free to Tumor Burden Endpoint (CT-26 KRAS D12C KI tumor; Formula (10b) 100 mg/kg PO QD×35, ANTIBODY A 10 mg/kg IP Q4D×4, endpoint tumor volume >1,500 mm^3): 19 Study Day
Hazard Ratio Treatment/ANTIBODY A (Group 2) (CT-26 KRAS D12C KI tumor; Mantel-Haenszel hazard ratio vs ANTIBODY A alone, progression-free to tumor burden endpoint (tumor volume >1,500 mm^3)): 1.230
Hazard Ratio Treatment/Control (Group 1) (CT-26 KRAS D12C KI tumor; Mantel-Haenszel hazard ratio vs Vehicle Control + MOPC-21 Isotype, progression-free to tumor burden endpoint (tumor volume >1,500 mm^3)): 0.261
